Assay [1] deals with male NMRI mice (isolation induced aggressive behaviour). Kind of assay: Isolation induced aggressive behaviour test. The class given is in vivo. To be noted: Mus musculus, sc, read-out: ED50, isolation induced aggressive behaviour test. From the text: Test 1: Isolation induced aggressive behaviour test
Male mice subjected to prolonged isolation develop aggressive behaviour against each other when paired (Yen, C. Y. et al., Arch. Int. Pharmacodyn. 123, 179, (1959): Valzelli, L., Adv. Pharmacol. 5, 79 (1967)). […] The clinical correlation of this test indicates tranquillizing and anxiolytic activities as well as antiaggressive properties as such (Duncan, R. L. et al., J Med. Chem. 13, 1 (1970)).
This type of aggression is interesting because it is known that this kind of emotional behaviour might be located in limbic structures in the brain (MacLean, P.D., Psychosom. Med. 11, 338 (1949)).
Every week male NMRI mice, weighing 20-22 g, were isolated in Makrolon cages for three weeks with diet and water ad libitum. A piece of cardboard was placed between the cages to prevent visual contact.
To test aggressiveness the mice were paired in a neutral area, a beaker (14 cm high and diameter 14 cm). A pair is considered aggressive if both the animals show clear signs of fighting within 5 minutes. This fighting is characterized by biting and vocalization. […] Animals showing no aggression are discarded. […] The test substance is administered s.c. (0.2-0.4 ml/20 g). The mice are paired 0.5 hour after the injection for trials of 5 minutes duration.
The ED50 -value (mg/kg) reported is the dose inhibiting aggressive behaviour among 50 per cent of the pairs 0.5 hour after drug administration.

Assay [2] relates to female rats (conditioned avoidance response). Kind of assay: Conditioned avoidance response (CAR). Format: in vivo. The conditions noted are these: Rattus norvegicus, sc, 1.5 h, read-out: ED50, conditioned avoidance response. The protocol: Test 2: Conditioned avoidance response (CAR)
The effect of the test compounds on CAR was evaluated in a shuttle box, manufactured by Ugo Basile, Italy. The female rats, weighing 150 g, were trained to avoid an electric shock (unconditioned stimulus--US) by escaping from one compartment to the other when the light from a 15W lamp is switched on (conditioned stimulus--CS). When they responded to the CS, a conditioned response (CR) was considered to have been elicited. Rats showing a stable CR of more than 80% after a three weeks' training program were used in the experiments. Groups of six rats were subcutaneously administered with various doses of the test compounds. 11/2 hours after the administration each rat was placed in the experimental box and the effect on CR was evaluated. ED50 -values refer to the dose inhibiting CR in 50% of the animals. The mechanisms regulating conditioned responses are very complex. Both catecholaminergic and hormonal factors are of importance.

Assay [3] concerns female NMRI mice (writhing behaviour). Kind of assay: Writhing test (acetic acid). To be noted: Mus musculus, sc, 20 minutes before acetic acid (0.5%, 15 ml/kg i.p.), dose blocking writhing in 50% of the animals. The class given is in vivo. The protocol:
The writhing test is a frequently used test of analgetic properties (Witkin, L. B. et al., J. Pharmacol. Exp. Ther. 133, 400 (1961)). If acetic acid (0.5%, 15 ml/kg) is injected intraperitoneally in mice (NMRI) they will without exception develop a writhing behaviour characterized by stretching their hind legs. The drugs to be tested were administered subcutaneously to 6 female mice at each dose 20 minutes before the injection of the acetic acid. After 10 minutes the behaviour of the mice was studied in 5 minutes. The ED50 -value is the dose blocking the writhing behaviour in 50% of the animals during the 5 minutes study period. [drawing 12]
A general note: In writhing tests, fewer writhes than in controls are read as antinociception.

The test system of assay [4] is male NMRI mice (isolation induced aggressive behaviour). The conditions noted are these: result in words; clinically used drugs; cited from earlier work.
Where [5] appears, read: mice, dose inhibiting aggressive behaviour among 50 per cent of the pairs 0.5 hour after administration.
[6] abbreviates: s.c., rats, dose inhibiting CR in 50% of the animals, 1 1/2 hours after administration.

By ED50 is commonly meant the dose that gives a 50% effect, or the effect in half of the subjects.

The structures appear in SMILES notation. Structures can show the parent of a compound that is named as a salt. Where two headings read alike, the source gives them in different places.

For the molecule `CN(C)CCC=C1c2ccccc2CCc2ccccc21` [Amitriptyline], in assay [1] (setting [5]), the ED50 is 5 mg/kg.
For `CSc1ccc2c(c1)N(CCC1CCCCN1C)c1ccccc1S2` (stereo not drawn) [Thioridazine], the results for the ED50 in assay [2] (setting [6]) and in assay [1] (setting [5]) were 41 mg/kg and 5 mg/kg, respectively.
For the molecule `CCNC(=O)N1CCN(CCCC(=O)c2ccc(F)cc2)CC1` [1:3, 4-.vertline.4-(p-fluorophenyl)-4-oxobutyl.vertline.-N-ethyl-1-piperazinecarboxamide hydrochloride], the ED50 in assay [2] (setting [6]) amounted to 12 mg/kg; in assay [1] (setting [5]) it was 1.7 mg/kg; in assay [3], 1.9 mg/kg.
As to `CCNC(=O)N1CCN(CCCCc2ccc(F)cc2)CC1` [1:15, 4-.vertline.4-(p-fluorophenyl)butyl.vertline.-N-ethyl-1-piperazinecarboxamide hydrochloride], the 50% effective dose (ED50) is 7.9 mg/kg in assay [2] (setting [6]), 3.5 mg/kg in assay [1] (setting [5]) and 3.7 mg/kg in assay [3].
`CN(C)CCCN1c2ccccc2Sc2ccc(Cl)cc21` [Chlorpromazine]: the ED50 in assay [2] came to 3.5 mg/kg; in assay [1] (0.5 h), 1.4 mg/kg.
On to `CN1C(=O)CN=C(c2ccccc2)c2cc(Cl)ccc21` [Diazepam], for which, in assay [4], the “activity on isolation induced aggressive behaviour, known drugs” value was “active on this kind of aggressive behaviour”.
